Laboratory results from paper PMC5431342, “Discovery of an enzyme and substrate selective inhibitor of ADAM10 using an exosite-binding glycosylated substrate” (Scientific Reports, 2016).

Columns and labels:
[1] = system: BT474 cells; experiment: Cell toxicity study (CellTiter-Glo), BT474; type: cell-based; conditions: 72 h
Method: Test compounds were solubilized in 100% DMSO and added to polypropylene 384 well plates (Greiner cat# 781280). 1,250 of BT474 or HEK293 cells were plated in 384-well plates in 8 µL of serum-free media (HybriCare for BT474, EMEM for HEK293). Test compounds and pharmacological assay control (lapatinib) were prepared as 10-point, 1:3 serial dilutions starting at 10 mM, then added to the cells using the pin tool mounted on Biomek NX^P. Plates were incubated for 72 h at 37 °C, 5% CO2 and 95% RH. After incubation, 8 µL of CellTiter-Glo® (Promega cat# G7570) was added to each well, and incubated for 15 min at room temperature. Luminescence was recorded using a Biotek Synergy H4 multimode microplate reader. Viability was expressed as a percentage relative to wells containing media only (0%) and wells containing cells treated with DMSO only (100%). Three parameters were calculated on a per-plate basis: (a) the signal-to-background ratio (S/B); (b) the coefficient for variation [CV; CV = (standard deviation/mean) × 100)] for all compound test wells; and (c) the Z′-factor. IC50 values were calculated by fitting normalized data to sigmoidal log vs. response equation utilizing non-linear regression analysis from GraphPad Prizm 6.

[2] = molecular target: T1, ADAM10 (Homo sapiens, UniProt O14672); experiment: ADAM10 glycosylated substrate uHTS/HTS assay; type: biochemical
T1 construct: purchased R&D Systems 936-AD
T1 sequence (O14672 214-748): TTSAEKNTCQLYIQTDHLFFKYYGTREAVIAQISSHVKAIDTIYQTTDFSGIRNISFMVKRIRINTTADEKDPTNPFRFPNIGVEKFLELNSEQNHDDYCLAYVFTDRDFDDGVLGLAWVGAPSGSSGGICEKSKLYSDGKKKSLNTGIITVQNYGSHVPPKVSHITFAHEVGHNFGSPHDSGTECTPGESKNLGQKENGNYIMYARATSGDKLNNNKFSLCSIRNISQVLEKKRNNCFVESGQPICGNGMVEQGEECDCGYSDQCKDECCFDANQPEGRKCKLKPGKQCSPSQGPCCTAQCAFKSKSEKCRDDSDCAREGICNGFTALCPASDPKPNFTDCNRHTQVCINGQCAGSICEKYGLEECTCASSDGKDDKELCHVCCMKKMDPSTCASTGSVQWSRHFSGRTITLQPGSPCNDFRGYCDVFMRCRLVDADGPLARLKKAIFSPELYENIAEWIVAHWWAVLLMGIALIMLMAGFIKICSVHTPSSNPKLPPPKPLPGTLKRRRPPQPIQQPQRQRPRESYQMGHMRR
Method: To enable uHTS both ADAM10 and ADAM17 glycosylated substrate[13] (Fig. 1A) assays were miniaturized to 1536 well plate format. The workflow of the assays in 384 well plate format was recaptured in 1536 well plate format and assay volume was scaled down to 5 µL.
Both assays followed the same general protocol. […] Reactions were incubated at RT for 2 h, after which the fluorescence was measured using Perkin Elmer Viewlux multimode microplate imager (λexcitation = 360 nm, λemission = 460 nm). Final concentration of test compounds in assays was 7.0 µM.
The miniaturized 1536-well plate format ADAM10 and ADAM17 assays were used to screen a collection of ≈370,000 compounds (MLSMR library, provided by the NIH) on the automated Kalypsys/GNF platform at the Scripps Research Institute Molecular Screening Center (SRIMSC, Jupiter, FL. More details at http://hts.florida.scripps.edu/). […] Both uHTS campaigns were run separately but in a similar manner. Briefly, the first step was the primary screen of all MLSMR’s test compounds as singlicate against the ADAM10 or ADAM17 target at a final concentration of 7.0 μM. Next, compounds selected as primary hits were cherry-picked and retested in triplicate against the primary screen target and its anti-target (ADAM17 for the ADAM10 screening effort, and vice-versa) at the same final concentration of 7.0 μM. […] All data generated during this effort were uploaded to the SRIMSC’s institutional screening database (Assay Explorer, Symyx). Sample to background (S/B) ratios, as well as Z and Z′ values were calculated on a per-plate basis as described before. Curve fitting and resulting IC50 determinations were performed as previously reported.

[3] = system: shedding of CXCL16 in A549 cells; experiment: CXCL16 shedding inhibition (ELISA); type: cell-based, human
Method: A549 cells were seeded in 12-well plates and grown to confluency in DMEM supplemented with 10% FBS and 1% P/S. Subsequently, cells were starved serum-free for 4 h, incubated for 1 h with GI 254023X or CID 3117694 (concentrations as indicated) or DMSO (vehicle, 0.1%) and afterwards stimulated with 10 ng/mL TNF and 10 ng/mL IFN for 24 h or left untreated in the presence of inhibitors or DMSO. Supernatants (500 µL) were harvested and centrifuged for 10 min at 16100 g and 4 °C. […] of CXCL16 were measured using the DuoSet human CXCL16 Elisa Kit (R&D systems, Wiesbaden, Germany). Samples were stored at −80 °C and diluted 2-fold after careful thawing. The standard ranged from 0 to 25,000 pg/mL with a detection limit of 391 pg/mL. For detection of soluble syndecan-4, conditioned media (200 µL) were 2-fold diluted in blotting buffer (0.15 M NaCl buffered to pH 4.5 with 50 mM sodium acetate, and with 0.1% Triton X-100), and applied to cationic polyvinylidene difluoride-based membranes (Hybond-N, Amersham Biosciences, Freiburg, Germany) under vacuum in a dot blot apparatus (Amersham Biosciences). The membranes were blocked for 1 h with PBS-T supplemented with 1% bovine serum albumin and 3% milk powder. Human syndecan-4 was detected by incubating membranes overnight at 4 °C with mouse anti-syndecan-4 mAb (0.6 µg/mL) followed by incubation with POD-coupled goat anti-mouse Ab (27 ng/mL in PBS, Jackson Immunoresearch). Chemiluminescence was recorded and quantified using the luminescent image analyzer LAS3000 substrate after addition of ECL advanced substrate (Amersham Biosciences).

- difference in potency, 0.5 hour pre-incubation versus no incubation [2]: approximately 40 fold
- IC50 ([2]; 1 h pre-incubation): 700 ± 500 nM
- IC50 ([2]; 4 h pre-incubation): 400 ± 300 nM
- difference in in vitro potency for ADAM10, GI 254023X versus CID 3117694 ([2]; IC50 5.3 nM versus 1.1 µM): ~200 fold
- IC50 ([2]; no pre-incubation with ADAM10): 40000 ± 5000 nM
- inhibition profile ([2]; no pre-incubation with ADAM10): partial inhibition profile
- IC50 ([2]; original uHTS dose response, 10-point 1:3 dilutions starting at 70 µM): 6500 nM
- IC50 ([2]; reordered powder, HTS assay, glycosylated substrate, 0.5 h pre-incubation): 1100 nM
Compound: COc1cccc(C(=O)NNC(=O)C(=O)Nc2ccc(C)c(Cl)c2)c1 [CID 3117694]
- effect on viability of BT474 cells [1]: did not affect viability
- inhibition of cytokine-inducible shedding of CXCL16 ([3]; TNF/IFN stimulation 24 h): inhibited cytokine-inducible
- inhibition of constitutive shedding of CXCL16 ([3]; unstimulated): not the constitutive shedding
